Bounds are passed on as bounds.

The source of these data is patent US20260078120A1, “SUBSTITUTED PYRIDOPYRIMIDINONES” (MIRATI THERAPEUTICS, INC., priority 2022, published 2026).

Common to all, as to type: cell-based
Test [1] has as its system SKBR3 (PI3Kα wild type) cells. Put plainly: CellTiter-Glo 2.0 luminescent cell viability assay, 72 hours, SKBR3 cells. The note with it: Homo sapiens, SK-BR-3, 72 h, SKBR3 (PI3Kα wild type) cells, CellTiter-Glo, approximately 72 hours; read-out: SKBR3 (WT) Viability IC50. In a few lines:
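Viability measured via CTG luminescence following roughly 72 hours of compound exposure at 37° C. Dosing used a 10 um starting concentration diluted 1:4 over 10 points; percent-of-vehicle data fitted with a variable-slope four-parameter model for IC50.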
On the technique in general: In ATP-based viability assays light output follows the ATP content of the culture.

The test system of test [2] is T47D (PI3Kα H1047R mutant) cells. Put plainly: Inhibition of pAKT formation, alphaLISA SureFire Ultra AKT 1/2/3 (pS473), T47D cells. The note with it: Homo sapiens, T47D, T47D (PI3Kα H1047R mutant) cells; inhibition of pAKT (pS473) formation; approximately one hour or 24 hours treatment; read-out: T47D pAKT (H1047R mutant) IC50. In a few lines: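 T47D cells (12,000/well) in HBSS were dosed with compound at 10 concentrations (10.4 μM top, 1:4 dilutions) for about 1 h or 24 h at 37 °C, then lysed. pS473 AKT was read by alphaLISA. Signals were normalized to alpelisib and DMSO controls, and IC50 came from a four-parameter fit.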
A general note: In Alpha technology, singlet oxygen from a donor bead excites a nearby acceptor bead.

Test [3] deals with SKBR3 (PI3Kα wild type) cells. The test can be described thus: Inhibition of pAKT formation, alphaLISA SureFire Ultra AKT 1/2/3 (pS473), SKBR3 cells. The note with it: Homo sapiens, SK-BR-3; Inhibition of pAKT in SKBR3 (PI3Kα wild type) cells; read-out: SKBR3 (WT) pAKT IC50 (nM) (H1047R mutant) IC50. The protocol: The ability of a compound of Formula (I) to inhibit the formation of pAKT was measured using alphaLISA Surefire Ultra AKT 1/2/3 (pS473) Assay Kit (#ALSU-PAKT-B50K) was obtained from Perkin Elmer (Waltham, MA).
To prepare assay plates for pAKT alphaLISA assays, cells were trypsinized, resuspended in fresh media, and viable cells were counted utilizing trypan blue exclusion. Prior to seeding, cells were washed with PBS and resuspended in HBSS (Gibco, #14025092). T47D (12,000/w), SKBR3(12,000/w), or MKN1(24,000/w) cells were seeded at 12 μl per well in a solid white flat bottom 384 cell culture plate (Perkin Elmer #6007680).
Immediately after seeding, cells were dosed using an Echo Liquid Handler (Beckman Coulter) with compounds at a […] starting concentration and serially diluted (1:4) for a total of 10 concentrations. […] Cells were incubated with the compounds (solubilized in DMSO) for approximately one hour or 24 hours at 37° C. After one hour (or 24 hours) of treatment, cells were lysed with 3 μl of the 5× lysis buffer (provided and incubated at room temperature for 15 min on a microtiter plate shaker). Once cells were sufficiently lysed, 7.5 μl of the acceptor bead mix (made using the manufacturers recommended dilutions) was added to each well and left on the microtiter plate shaker for 1 min prior to incubating plates at room temperature for one hour, in the absence of light. After one hour of incubation with the acceptor bead mix, 7.5 μl of the donor bead mix (made using the manufacturers recommended dilutions) was added to each well and left on the microtiter plate shaker for 1 min prior to incubating plates at room temperature overnight in the absence of light. Plates were then imaged the following day using a CLARIOstar microplate reader (BMG Labtech, Germany).
Percent of control values were calculated by subtracting the average signal from the positive control (alpelisib) treated wells from all treated wells (including DMSO control wells) and then divided by the average signal from the vehicle DMSO treated control wells. Percent of vehicle control values were plotted as log (inhibitor) vs. response-Variable slope (four parameters) for curve fitting and IC50 values were determined using XLfit.
Key: N.D. =not determined

The test system of test [4] is T47D (PI3Kα H1047R mutant) cells. Put plainly: CellTiter-Glo 2.0 luminescent cell viability assay, 72 hours, T47D cells. To be noted: T47D (PI3Kα H1047R mutant) cells, CellTiter-Glo, approximately 72 hours, read-out: T47D (H1047R mutant) Viability IC50. The gist of the method: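 Cells seeded at 1000 per well overnight were dosed with a 10-concentration, 1:4 series starting at 10 µM and incubated ~72 h at 37° C. Viability was read by CellTiter-Glo 2.0 luminescence after 30 min at room temperature. IC50 came from four-parameter fits of percent vehicle control.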

For the compound `Cc1ccc(-c2cc(=O)n3cc(C)cc(C(C)Nc4ccccc4C(=O)O)c3n2)cc1` (stereo not shown) [7-2, 2-((1-(7-methyl-4-oxo-2-(p-tolyl)-4H-pyrido[1,2-a]pyrimidin-9-yl)ethyl)amino)benzoic acid], the IC50 is more than 10000 nM in test [1]; more than 100000 nM in test [2]; more than 10000 nM in test [3]; more than 10000 nM in test [4] (Homo sapiens, T47D, 72 h).
As to `Cc1cc([C@@H](C)Nc2ccccc2C(=O)O)c2nc(N3CCN(c4ccc(C#N)cc4)C(C)C3)c(C)c(=O)n2c1` (stereo partly drawn) [Example 10-110, 2-(((1R)-1-(2-(4-(4-cyanophenyl)-3-methylpiperazin-1-yl)-3,7-dimethyl-4-oxo-4H-pyrido[1,2-a]pyrimidin-9-yl)ethyl)amino)benzoic acid], the IC50 was more than 10000 nM in test [1]; 1.05 nM in test [2]; 94.1 nM in test [4] (Homo sapiens, T47D, 72 h).
Taken in the same sequence, the figures for `Cc1cc([C@@H](C)Nc2ccccc2C(=O)O)c2nc(N3CCC4(CC3)COC4)c(C)c(=O)n2c1` [Example 10-111, (R)-2-((1-(3,7-dimethyl-4-oxo-2-(2-oxa-7-azaspiro[3.5]nonan-7-yl)-4H-pyrido[1,2-a]pyrimidin-9-yl)ethyl)amino)benzoic acid] were more than 10000 nM, 4.82 nM and 96.4 nM.
Taken in the same sequence, the figures for `Cc1cc([C@@H](C)Nc2ccccc2C(=O)O)c2nc(N3CCN(c4ncc(C#N)cn4)CC3)c(C#N)c(=O)n2c1` [Example 10-112, (R)-2-((1-(3-cyano-2-(4-(5-cyanopyrimidin-2-yl)piperazin-1-yl)-7-methyl-4-oxo-4H-pyrido[1,2-a]pyrimidin-9-yl)ethyl)amino)benzoic acid] were more than 10000 nM, 6.23 nM and 96.7 nM.
As for `Cc1cc([C@@H](C)Nc2ccccc2C(=O)O)c2nc(N3CCC(F)(F)CC3)c(Cl)c(=O)n2c1` [Example 10-114, (R)-2-((1-(3-chloro-2-(4,4-difluoropiperidin-1-yl)-7-methyl-4-oxo-4H-pyrido[1,2-a]pyrimidin-9-yl)ethyl)amino)benzoic acid], the IC50 is more than 10000 nM in test [1]; 2.58 nM in test [2]; 98.5 nM in test [4] (Homo sapiens, T47D, 72 h).
For `Cc1cc([C@@H](C)Nc2ccc(C)nc2C(=O)O)c2nc(NC3CCC3)c(C#N)c(=O)n2c1` [Example 10-115, (R)-3-((1-(3-cyano-2-(cyclobutylamino)-7-methyl-4-oxo-4H-pyrido[1,2-a]pyrimidin-9-yl)ethyl)amino)-6-methylpicolinic acid] the same measures were more than 10000 nM, 58.4 nM and 98.8 nM.
Taken in the same sequence, the figures for `COC1CCN(c2nc3c([C@@H](C)Nc4ccccc4C(=O)O)cc(C)cn3c(=O)c2C)CC1(F)F` (stereo partly drawn) [Example 10-116, 2-(((1R)-1-(2-(3,3-difluoro-4-methoxypiperidin-1-yl)-3,7-dimethyl-4-oxo-4H-pyrido[1,2-a]pyrimidin-9-yl)ethyl)amino)benzoic acid] were more than 10000 nM, 1.58 nM and 100 nM.
Taken in the same sequence, the figures for `Cc1cc([C@@H](C)Nc2ccccc2C(=O)O)c2nc(N3CCN(C(=O)c4ccccc4)CC3)c(C)c(=O)n2c1` [Example 10-117, (R)-2-((1-(2-(4-benzoylpiperazin-1-yl)-3,7-dimethyl-4-oxo-4H-pyrido[1,2-a]pyrimidin-9-yl)ethyl)amino)benzoic acid] were 3720 nM, 2.16 nM and 101 nM.
Regarding `Cc1cc([C@@H](C)Nc2ccccc2C(=O)O)c2nc(C3CCN(c4ccc(C#N)cc4)CC3)c(C)c(=O)n2c1` [Example 10-120, (R)-2-((1-(2-(1-(4-cyanophenyl)piperidin-4-yl)-3,7-dimethyl-4-oxo-4H-pyrido[1,2-a]pyrimidin-9-yl)ethyl)amino)benzoic acid], the IC50 in test [1] was more than 10000 nM; in test [2], 2.25 nM; in test [4] (Homo sapiens, T47D, 72 h) it was 103 nM.
Taken in the same sequence, the figures for `COC1CCN(c2nc3c([C@@H](C)Nc4ccccc4C(=O)O)cc(C)cn3c(=O)c2C#N)CC1` [Example 10-123, (R)-2-((1-(3-cyano-2-(4-methoxypiperidin-1-yl)-7-methyl-4-oxo-4H-pyrido[1,2-a]pyrimidin-9-yl)ethyl)amino)benzoic acid] were more than 10000 nM, 2.39 nM and 104 nM.
For `Cc1cc([C@@H](C)Nc2ccccc2C(=O)O)c2nc(N3CC4CC(C4)C3)c(C)c(=O)n2c1` [Example 10-124, (R)-2-((1-(2-(3-azabicyclo[3.1.1]heptan-3-yl)-3,7-dimethyl-4-oxo-4H-pyrido[1,2-a]pyrimidin-9-yl)ethyl)amino)benzoic acid] the same measures were more than 10000 nM, 1.59 nM and 105 nM.
For `Cc1cc([C@@H](C)Nc2ccccc2C(=O)O)c2nc(N3CCN(CC(F)(F)F)CC3)c(C)c(=O)n2c1` [Example 10-125, (R)-2-((1-(3,7-dimethyl-4-oxo-2-(4-(2,2,2-trifluoroethyl)piperazin-1-yl)-4H-pyrido[1,2-a]pyrimidin-9-yl)ethyl)amino)benzoic acid] the same measures were more than 10000 nM, 3.13 nM and 107 nM.
With `Cc1cc([C@@H](C)Nc2ccccc2C(=O)O)c2nc(N3CCC(F)(F)[C@H](C)C3)c(C)c(=O)n2c1` [Example 10-126, 2-(((R)-1-(2-((R)-4,4-difluoro-3-methylpiperidin-1-yl)-3,7-dimethyl-4-oxo-4H-pyrido[1,2-a]pyrimidin-9-yl)ethyl)amino)benzoic acid], the IC50 in test [1] is more than 10000 nM; in test [2], 2.64 nM; in test [4] (Homo sapiens, T47D, 72 h), 109 nM.
For `Cc1cc([C@@H](C)Nc2ccccc2C(=O)O)c2nc(N3CCC(F)(F)[C@@H](C)C3)c(C)c(=O)n2c1` [Example 10-127, 2-(((R)-1-(2-((S)-4,4-difluoro-3-methylpiperidin-1-yl)-3,7-dimethyl-4-oxo-4H-pyrido[1,2-a]pyrimidin-9-yl)ethyl)amino)benzoic acid] the same measures were more than 10000 nM, 1.19 nM and 74.4 nM.
For `Cc1cc([C@@H](C)Nc2ccccc2C(=O)O)c2nc(N3CCN(c4cccnc4C#N)CC3)c(C)c(=O)n2c1` [Example 10-131, (R)-2-((1-(2-(4-(2-cyanopyridin-3-yl)piperazin-1-yl)-3,7-dimethyl-4-oxo-4H-pyrido[1,2-a]pyrimidin-9-yl)ethyl)amino)benzoic acid] the same measures were more than 10000 nM, 1.86 nM and 48.8 nM.
For the compound `Cc1cc([C@@H](C)Nc2ccccc2C(=O)O)c2nc(N3Cc4cc(F)c(F)cc4C3)c(C)c(=O)n2c1` [Example 10-140, (R)-2-((1-(2-(5,6-difluoroisoindolin-2-yl)-3,7-dimethyl-4-oxo-4H-pyrido[1,2-a]pyrimidin-9-yl)ethyl)amino)benzoic acid], the IC50 was more than 10000 nM in test [1], 572 nM in test [2] and 75.8 nM in test [4].
On to `Cc1cc([C@@H](C)Nc2ccccc2C(=O)O)c2nc(N3CC4CC3C(F)(F)C4)c(C)c(=O)n2c1` (stereo partly drawn) [Example 10-141, 2-(((1R)-1-(2-(6,6-difluoro-2-azabicyclo[2.2.1]heptan-2-yl)-3,7-dimethyl-4-oxo-4H-pyrido[1,2-a]pyrimidin-9-yl)ethyl)amino)benzoic acid], for which the IC50 in test [1] is more than 10000 nM; in test [2], 4.1 nM; in test [4] (Homo sapiens, T47D, 72 h), 163 nM.

Usually IC50 stands for the concentration that inhibits the measured activity by half.
